From patent publication US20110312984A1, “STAT3 INHIBITORS” (priority 2008, published 2011)

Columns and labels:
Format in all cases: cell-based
Stat1 = target: T1, Stat1 (Homo sapiens, UniProt P42224); test: Immunoblot assay: IFN-γ-mediated phosphorylation of Stat1 in HepG2 cells; conditions: 300 μM, 1 hour at 37° C. before IFN-γ stimulation
T1 construct: endogenous in cells; host or cells: HepG2
T1 sequence (P42224 1-750): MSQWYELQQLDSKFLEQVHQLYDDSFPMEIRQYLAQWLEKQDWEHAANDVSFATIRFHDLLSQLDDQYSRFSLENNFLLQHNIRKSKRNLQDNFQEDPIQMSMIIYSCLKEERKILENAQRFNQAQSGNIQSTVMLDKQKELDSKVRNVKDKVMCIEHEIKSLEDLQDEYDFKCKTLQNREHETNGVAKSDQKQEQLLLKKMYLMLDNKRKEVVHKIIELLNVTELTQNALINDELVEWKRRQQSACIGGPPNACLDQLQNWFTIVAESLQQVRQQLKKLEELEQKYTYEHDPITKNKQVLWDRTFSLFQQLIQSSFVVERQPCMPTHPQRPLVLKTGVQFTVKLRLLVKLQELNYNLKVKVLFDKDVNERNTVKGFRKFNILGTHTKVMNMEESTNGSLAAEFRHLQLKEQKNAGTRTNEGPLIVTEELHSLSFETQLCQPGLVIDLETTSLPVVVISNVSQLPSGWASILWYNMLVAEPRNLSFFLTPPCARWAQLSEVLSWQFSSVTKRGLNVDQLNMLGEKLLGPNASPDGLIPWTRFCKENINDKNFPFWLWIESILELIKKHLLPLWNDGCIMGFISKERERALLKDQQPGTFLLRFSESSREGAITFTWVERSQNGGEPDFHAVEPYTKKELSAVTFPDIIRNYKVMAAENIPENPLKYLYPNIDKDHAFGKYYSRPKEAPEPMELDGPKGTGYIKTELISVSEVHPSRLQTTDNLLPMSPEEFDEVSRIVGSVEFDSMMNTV
Method: Immunoblot assay. The human hepatocellular carcinoma cell line (HepG2) was grown in 6-well plates under standard conditions. Cells were pretreated with compounds (0, 1, 3, 10, 30, 100 and 300 uM) for 1 hour then stimulated under optimal conditions with either interferon gamma (IFN-γ; 30 ng/ml for 30 min) to activate Stat1 or interleukin-6 (IL-6; 30 ng/ml for 30 min) to activate Stat3 (30-31). Cultures were then harvested and proteins extracted using high-salt buffer, as described (Shao et al., 2006). Briefly, extracts were mixed with 2× sodium dodecyl sulfate (SDS) sample buffer (125 mmol/L Tris-HCL pH 6.8; 4% SDS; 20% glycerol; 10% 2-mercaptoethanol) at a 1:1 ratio and heated for 5 minutes at 100° C. Proteins (20 μg) were separated by 7.5% SDS-PAGE and transferred to polyvinylidene fluoride (PVDF) membrane (Millipore, Waltham, Mass.) and immunoblotted. Prestained molecular weight markers (Biorad, Hercules, Calif.) were included in each gel. Membranes were probed serially with antibody against Stat1 pY^701 or Stat3 pY^705 followed by antibody against Stat1 or Stat3 (Transduction labs, Lexington, Ky.) then antibody against β-actin (Abcam, Cambridge, Mass.). Membranes were stripped between antibody probing using Restore™ Western Blot Stripping Buffer (Thermo Fisher Scientific Inc., Waltham, Mass.) per the manufacturer's instructions. Horseradish peroxidase-conjugated goat-anti-mouse IgG was used as the secondary antibody (Invitrogen Carlsbad, Calif.) and the membranes were developed with enhanced chemiluminescence (ECL) detection system (Amersham Life Sciences Inc.; Arlington Heights, Ill.).
EXP IIC. Ligand-mediated pStat3 and pStat1 inhibition assays. […] Briefly, human hepatocellular carcinoma cells (HepG2) are grown in 6-well plates and pretreated with compounds (0, 0.1, 0.3, 1, 3, 10, 30, 100 μM) for 1 hour then stimulated under optimal conditions with either interleukin-6 (IL-6; 30 ng/ml for 30 min) to activate Stat3 or interferon gamma (IFN-γ; 30 ng/ml for 30 min) to activate Stat1. Cells are harvested and proteins extracted using high-salt buffer, mixed with 2× sodium dodecyl sulfate (SDS) sample buffer (125 mmol/L Tris-HCL pH 6.8; 4% SDS; 20% glycerol; 10% 2-mercaptoethanol) at a 1:1 ratio then heated for 5 minutes at 100° C. Proteins (20 μg) are separated by 7.5% SDS-PAGE and transferred to polyvinylidene fluoride (PVDF) membrane (Millipore, Waltham, Mass.) and immunoblotted. Membranes are probed serially with antibody against Stat1 pY701 or Stat3 pY705 followed by antibody against Stat 1 or Stat3 (Transduction labs, Lexington, Ky.) then antibody against β-actin (Abcam, Cambridge, Mass.). Membranes are stripped between antibody probings using Restore™ Western Blot Stripping Buffer (Thermo Fisher Scientific Inc., Waltham, Mass.) per the manufacturer's instructions. Horseradish peroxidase-conjugated goat-anti-mouse IgG is used as the secondary antibody (Invitrogen Carlsbad, Calif.) and the membranes are developed with enhanced chemiluminescence (ECL) detection system (Amersham Life Sciences Inc.; Arlington Heights, Ill.). Band intensities are quantified by densitometry. The value of each pStat3 band is divided by its corresponding total Stat3 band intensity; the results are normalized to the DMSO-treated control value. This value was plotted as a function of the log compound concentration. The best-fitting curve is determined using 4-Parameter Logistic Model/Dose Response/XLfit 4.2, IDBS software and was used to calculate the IC50 value.

MCF7 = test: Breast cancer cell line apoptosis assay (nucleosome ELISA); conditions: Homo sapiens, MCF7, 24 h
Method: (§1) Breast cancer cell line apoptosis assay. Human breast carcinoma cell lines MDA-MB-468, MDA-MB-231, MBA-MD-435 and MCF7 were kindly provided by Dr. Powel H. Brown (Breast Cancer Center, Baylor College of Medicine). Breast cancer cell line, MDA-MB-453 was kindly provided by Dr. Shou Jiang (Breast Cancer Center, Baylor College of Medicine). All cell lines were grown in DMEM medium supplemented with 10% fetal bovine serum (FBS), 25,000 units penicillin G, 25,000 ug streptomycin, and 131.4 mg L-Glutamine and cultured in the incubator under the condition of 95% air, 5% CO2 at 37° C. (Garcia et al., 2001). Cells were seeded at 2,500 cells/cm^2 into 12-well plates. At 80% confluency, cells were washed with PBS and supplemented with fresh medium containing compound or the topoisomerase I-inhibitor, camptothecin, at 0, 0.1, 03, 1, 3, 10, 30, 100, 300 µM. At 24 hours, treatment was terminated by removing the medium from each well. Cells were lysed with cell lysis buffer (600 μl for 30 minutes at 25° C.). Cell lysate (200 μl) was centrifuged at 200×g for 10 minutes and 20 μl of each supernatant was assayed for nucleosomes using the Cell Death Detection ELISA (Roche Applied Science) as described by the manufacturer. The percent maximum nucleosome level was calculated by dividing the nucleosome level by the maximum nucleosome level achieved in the assay and multiplying by 100. […]

MDA-MB-453 = test: as above; conditions: Homo sapiens, MDA-MB-453, 24 h
Method: as §1

Stat1 phosphorylation blocked (Stat1): did not
EC50 (MCF7): 15.5 µM
EC50 (MDA-MB-453): 17.2 µM
Structure (SMILES): O=C(O)CSc1cc(NS(=O)(=O)c2ccc(C(=O)O)cc2)c2ccccc2c1O [Cpd188, 4-[({3-[(carboxymethyl)thio]-4-hydroxy-1-naphthyl}amino)sulfonyl]benzoic acid]
